This is an account of results in publication PMC3733713, “Downscaling the Analysis of Complex Transmembrane Signaling Cascades to Closed Attoliter Volumes” (PLoS ONE, 2013).

Usually Kd stands for the equilibrium constant for the complex coming apart.

The target of this test is T1, adenosine A2A receptor (A2AR-YFP) (Homo sapiens, UniProt P29274).
T1 construct: gene ADORA2A; Human adenosine 2A receptor fused C-terminally to EYFP
As to the kind of experiment: fluorescence correlation spectroscopy titration on single native vesicles from HEK293T cells (KD =[…] on cells). It counts as binding.

T1 sequence (P29274 whole entry, the tested form may be a part): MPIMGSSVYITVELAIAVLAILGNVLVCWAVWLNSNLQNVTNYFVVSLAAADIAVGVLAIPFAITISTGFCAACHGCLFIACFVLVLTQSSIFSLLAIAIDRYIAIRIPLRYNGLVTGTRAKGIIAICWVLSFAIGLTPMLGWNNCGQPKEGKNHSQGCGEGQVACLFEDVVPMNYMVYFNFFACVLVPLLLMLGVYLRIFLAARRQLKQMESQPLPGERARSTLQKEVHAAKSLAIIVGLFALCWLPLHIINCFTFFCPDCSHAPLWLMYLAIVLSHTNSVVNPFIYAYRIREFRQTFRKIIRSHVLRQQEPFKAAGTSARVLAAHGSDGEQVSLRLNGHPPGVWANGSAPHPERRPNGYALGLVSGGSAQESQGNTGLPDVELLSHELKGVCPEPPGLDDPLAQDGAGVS

The substance XAC-Atto655 gave a dissociation constant Kd of 67 ± 11 nM.
